The results in this text go back to patent US20250213478A1, “CATIONIC LIPID HAVING DISULFIDE BOND, LIPID MEMBRANE STRUCTURE INCLUDING SAME, NUCLEIC ACID INTRODUCTION AGENT AND PHARMACEUTICAL COMPOSITION CONTAINING ANY ONE OF SAME, METHOD FOR INTRODUCING NUCLEIC ACID INTO CELL OR TARGET CELL, AND METHOD FOR PRODUCING CELLULAR PHARMACEUTICAL” (NOF Corporation, priority 2022, published 2025).

Data set [1] deals with HeLa cells. The data set is described as follows: Evaluation of in vitro gene expression in HeLa cell (luciferase mRNA-encapsulating LNP). The data set is classed as cell-based, human. Conditions: for cumulative luciferase luminescence intensity over 24 hr: luciferase mRNA 0.4 μg per dish, LNP cationic lipid:DOPC:Chol:DMG-PEG2k=55:5:40:1; for gene expression activity compared to Comparative Example: result in words. The method, boiled down:
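LNP (cationic lipid:DOPC:Chol:DMG-PEG2k=55:5:40:1) carrying luciferase mRNA, 0.4 μg mRNA per 3.5 cm dish, added to HeLa cells in D-MEM with 0.1 mM D-luciferin. Luminescence read 2 min every hour in an incubator luminometer; value is cumulative luminescence over 24 hr.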

The nature of data set [2]: Measurement of Liposomal pKa of LNP (TNS fluorescence). The data set is classed as physicochemical. The note with it: LNP without nucleic acid, cationic lipid:DOPC:Chol=52.5:7.5:40 + about 1.5 mol DMG-PEG2k; pH at which relative TNS fluorescence intensity was 50%. The method, boiled down: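 Nucleic-acid-free LNPs (cationic lipid:DOPC:Chol 52.5:7.5:40, ~1.5 mol DMG-PEG2k) prepared by microfluidic mixing, diluted to 0.5 mM lipid, mixed with TNS in 150 mM NaCl buffers spanning pH 3.0–10.0. Fluorescence at ex 321/em 447 nm normalised 0–100% per LNP; pKa is the pH at 50%.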

The nature of data set [3]: Particle size, PdI and zeta potential of mRNA-encapsulating LNPs (dynamic light scattering). The data set is classed as physicochemical. The note with it: mRNA-encapsulating LNP, cationic lipid:DOPC:Chol=55:5:40 + about 1 mol DMG-PEG2k; for PdI / particle size: dynamic light scattering; for zeta potential: physiological pH. In short, it runs like this: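 LNPs were made from cationic lipid:DOPC:Chol at 55:5:40 molar ratio plus about 1 mol DMG-PEG2k, microfluidically mixed with mRNA in malate buffer (20 mM, pH 3.0, 30 mM NaCl). They were ultrafiltered into PBS at 2 mM lipid. Size, PdI and zeta potential were measured by dynamic light scattering.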

Data set [4] has as its system BALB/c mouse. The data set is described as follows: Evaluation of in vivo gene expression (luciferase mRNA-encapsulating LNP, IVIS of isolated organs). The note with it: for relative value based on Comparative Example (amount of luminescence in spleen): relative to O-Ph-P4C2 LNP = 1.00; for amount of luminescence in each organ: kidney / amount of luminescence in each organ: liver / amount of luminescence in each organ: lung / amount of luminescence in each organ: spleen / amount of luminescence in each organ: heart: tail vein, mRNA 0.05 mg/kg, 4.5 hr + 15 min after administration; for amount of luminescence in each organ: spleen: spleen (Table 7); for gene expression activity in the spleen compared to Comparative Example: result in words. As to the method: LNP encapsulating mRNA that expresses luciferase (cationic lipid:DOPC:Chol:DMG-PEG2k=55:5:40:1 (molar ratio)) was prepared by the method described in [Experimental Example 2], 1.
The prepared each mRNA-encapsulating LNP dispersion was administered from the tail vein of BALB/c mouse (male, 5-week-old). The dose of mRNA was set to 0.05 mg per 1 kg body weight of the mouse, and the dose of the mRNA-encapsulating LNP dispersion was set to 10 μL per 1 g body weight of the mouse. After 4.5 hr from the administration of the mRNA-encapsulating LNP dispersion, a PBS solution of D-luciferin potassium was administered into the abdominal cavity of the mouse. The dose of D-luciferin potassium was set to 3 mg per mouse, and the dose of the PBS solution of D-luciferin potassium was set to 200 μL per mouse. After 15 min from the administration of the PBS solution of D-luciferin potassium, the mouse was euthanized, and the liver, spleen, kidney, heart, and lung were isolated. The luminescence in each organ was quantified using an in vivo imaging system (IVIS) with an exposure of 10 sec. The amount of luminescence in each organ was quantified by image analysis using Live Imaging software attached to IVIS. The amount of luminescence (photons/sec) was calculated from the acquired image and used as an index of gene expression activity. “E+0a” (a: integer) indicated in Table 7 and Table 8 means “10^a”. For example, “1.0E+02” means “1.0×10^2”. In Comparative Example, the cationic lipid described in the aforementioned Table 3 were used.

For the molecule `CCCCCCCCCCCCCCCCC(CCCCCCCCCCCCCCCC)C(=O)Oc1ccc(CC(=O)OCCSSCCOC(=O)NCCCN(C)C)cc1` [Example 23], in data set [1], the “cumulative luciferase luminescence intensity over 24 hr” value was 2.05E+07 RLU and the “gene expression activity compared to Comparative Example” value was “superior gene expression activity”. Also, the pKa in data set [2] came to 8.3. Besides, in data set [3], the PdI is recorded as 0.160, the particle size was determined as 94 nm and the zeta potential is recorded as 13.8 mV. Moreover, in data set [4], the “relative value based on Comparative Example (amount of luminescence in spleen)” value (from here on “relative value based”) is 0.04, the “amount of luminescence in each organ: kidney” value (from here on “amount … kidney”) was 1.53E+05 photons/sec, the “amount of luminescence in each organ: liver” value (“amount of luminescence … liver” below) is reported as 2.36E+05 photons/sec and the “amount of luminescence in each organ: lung” value (from here on “amount of luminescence … lung”) is 5.02E+05 photons/sec. In data set [4], the “amount of luminescence in each organ: spleen” value (from here on “amount … in each organ: spleen”) worked out at 4.45E+05 photons/sec.

Take `CCCCCCCCCCCCCCCCC(CCCCCCCCCCCCCCCC)C(=O)Oc1ccc(CC(=O)OCCSSCCOC(=O)N(C)CCCN(C)C)cc1` [Example 24]: in data set [1], the “cumulative luciferase luminescence intensity over 24 hr” value stood at 6.22E+07 RLU and the “gene expression activity compared to Comparative Example” value is given as “superior gene expression activity”. The pKa in data set [2] was determined as 8.2. Also, in data set [3], the PdI is listed as 0.109, the particle size is reported as 96 nm and the zeta potential is on record as 12.2 mV. Further, in data set [4], the “relative value based” value came out at 0.05, the “amount of luminescence in each organ: heart” value (“amount of luminescence … heart” below) was 4.78E+05 photons/sec, the “amount … kidney” value stood at 4.84E+05 photons/sec and the “amount of luminescence … liver” value is listed as 5.08E+05 photons/sec. Also, in data set [4], the “amount of luminescence … lung” value came to 5.58E+05 photons/sec and the “amount … in each organ: spleen” value amounted to 5.09E+05 photons/sec.

With `CCCCCCCCCCCCCCCCC(CCCCCCCCCCCCCCCC)C(=O)Oc1ccc(CC(=O)OCCSSCCOC(=O)NCCCCN(C)C)cc1` [Example 25], in data set [1], the “cumulative luciferase luminescence intensity over 24 hr” value amounted to 1.25E+07 RLU and the “gene expression activity compared to Comparative Example” value is reported as “superior gene expression activity”. In addition, in data set [2], the pKa was determined as 8.6. Also, in data set [3], the PdI is 0.126, the particle size worked out at 78 nm and the zeta potential is reported as 14.7 mV. Besides, in data set [4], the “relative value based” value is given as 0.03, the “amount of luminescence … heart” value was 4.74E+05 photons/sec, the “amount … kidney” value worked out at 3.63E+05 photons/sec and the “amount of luminescence … liver” value turned out to be 1.67E+05 photons/sec. In data set [4], the “amount of luminescence … lung” value came out at 2.74E+05 photons/sec and the “amount … in each organ: spleen” value is listed as 3.07E+05 photons/sec.

For the molecule `CCCCCCCCCCCCCCCCC(CCCCCCCCCCCCCCCC)C(=O)Oc1ccc(CC(=O)OCCSSCCOC(=O)NCCN(C(C)C)C(C)C)cc1` [Example 28], in data set [1], the “cumulative luciferase luminescence intensity over 24 hr” value was determined as 4.57E+07 RLU and the “gene expression activity compared to Comparative Example” value is reported as “superior gene expression activity”. In data set [2], the pKa was found to be 6.7. Also, in data set [3], the PdI amounted to 0.070, the particle size is given as 66 nm and the zeta potential is listed as −1.4 mV. In data set [4], the “relative value based” value is 0.16, the “amount of luminescence … heart” value amounted to 6.88E+05 photons/sec, the “amount … kidney” value was determined as 6.48E+05 photons/sec and the “amount of luminescence … liver” value was found to be 9.90E+07 photons/sec. In data set [4], the “amount of luminescence … lung” value worked out at 9.12E+05 photons/sec and the “amount … in each organ: spleen” value was 1.68E+06 photons/sec.

As to `CCCCCCCCCCCCCCCCC(CCCCCCCCCCCCCCCC)C(=O)Oc1ccc(CC(=O)OCCSSCCOC(=O)N(C)CCN(CC)CC)cc1` [Example 29], in data set [1], the “cumulative luciferase luminescence intensity over 24 hr” value is listed as 1.75E+07 RLU and the “gene expression activity compared to Comparative Example” value is given as “superior gene expression activity”. Further, in data set [2], the pKa came out at 6.7. In addition, in data set [3], the PdI is reported as 0.080, the particle size was found to be 59 nm and the zeta potential was 1.2 mV. In data set [4], the “relative value based” value worked out at 0.29, the “amount of luminescence … heart” value was 7.27E+05 photons/sec, the “amount … kidney” value stood at 6.29E+05 photons/sec and the “amount of luminescence … liver” value is recorded as 8.05E+07 photons/sec. In addition, in data set [4], the “amount of luminescence … lung” value was 7.49E+05 photons/sec and the “amount … in each organ: spleen” value came to 3.16E+06 photons/sec.

Consider `CCCCCCCCCCCCCCCCC(CCCCCCCCCCCCCCCC)C(=O)Oc1ccc(CC(=O)OCCSSCCOC(=O)OCCN(C)C)cc1` [Example 30], for which, in data set [1], the “cumulative luciferase luminescence intensity over 24 hr” value amounted to 1.35E+07 RLU and the “gene expression activity compared to Comparative Example” value is listed as “superior gene expression activity”. The pKa in data set [2] was 6.4. In data set [3], the PdI is given as 0.080, the particle size is given as 59 nm and the zeta potential stood at 2.3 mV. Also, in data set [4], the “relative value based” value came out at 0.12, the “amount of luminescence … heart” value was found to be 6.17E+05 photons/sec, the “amount … kidney” value turned out to be 3.80E+05 photons/sec and the “amount of luminescence … liver” value is 1.98E+07 photons/sec. Further, in data set [4], the “amount of luminescence … lung” value came to 5.26E+05 photons/sec and the “amount … in each organ: spleen” value was 1.24E+06 photons/sec.

Turning to `CCCCCCCCCCCCCC(=O)OCC(C)(COC(=O)CCCCCCCCCCCCC)C(=O)Oc1ccc(CC(=O)OCCSSCCOC(=O)NCCN(CC)CC)cc1` [Example 31], in data set [1], the “cumulative luciferase luminescence intensity over 24 hr” value amounted to 1.58E+08 RLU and the “gene expression activity compared to Comparative Example” value was “superior gene expression activity”. Further, the pKa in data set [2] is 7.6. Moreover, in data set [3], the PdI turned out to be 0.072, the particle size came to 59 nm and the zeta potential was 4.1 mV. In data set [4], the “relative value based” value is listed as 1.74, the “gene expression activity in the spleen compared to Comparative Example” value is “superior gene expression activity”, the “amount of luminescence … heart” value is given as 7.26E+05 photons/sec and the “amount … kidney” value is recorded as 5.53E+05 photons/sec. In data set [4], the “amount of luminescence … liver” value came to 2.62E+07 photons/sec, the “amount of luminescence … lung” value is on record as 9.16E+05 photons/sec and the “amount … in each organ: spleen” value is reported as 1.88E+07 photons/sec.

On to `CCCCCCCC/C=C\CCCCCCCC(=O)OCC(C)(COC(=O)CCCCCCC/C=C\CCCCCCCC)C(=O)Oc1ccc(CC(=O)OCCSSCCOC(=O)NCCN(CC)CC)cc1` [Example 34], for which, in data set [1], the “cumulative luciferase luminescence intensity over 24 hr” value was 1.08E+08 RLU and the “gene expression activity compared to Comparative Example” value is reported as “superior gene expression activity”. Further, in data set [2], the pKa is 7.2. In data set [3], the PdI came to 0.060, the particle size is 63 nm and the zeta potential amounted to 0.4 mV. Besides, in data set [4], the “relative value based” value stood at 1.27, the “gene expression activity in the spleen compared to Comparative Example” value is listed as “superior gene expression activity”, the “amount of luminescence … heart” value was determined as 6.83E+05 photons/sec and the “amount … kidney” value is 5.04E+05 photons/sec. Also, in data set [4], the “amount of luminescence … liver” value is 2.52E+07 photons/sec, the “amount of luminescence … lung” value worked out at 6.02E+05 photons/sec and the “amount … in each organ: spleen” value worked out at 1.37E+07 photons/sec.

In general, pKa refers to the negative logarithm of the acid dissociation constant.
